Test: Solubility properties of the water soluble polar solvents (nitrapyrin solubility, water solubility)
Conditions: water solubility of the polar solvent

Q: For `COC(C)COC(C)CO` (stereo not shown) [Dowanol DPM, dipropylene glycol monomethyl ether], which water solubility is on record?
A: 100%
